From US5021450A (priority 1989, dated 1991)
“Also recorded” adds a separate entry of the source. Like-named read-outs stand apart in the source and are kept apart here.

Columns and labels:
polymodal nociceptors [1] = assay type: in vivo, Sprague-Dawley rats; conditions: for Neurogenic inflammation, Evan's blue: 30 min; for Evan's blue extravasation / less potent than RTX for induction of Evan's blue extravasation: rat, in vivo
polymodal nociceptors [2] = assay: animal or person; assay type: in vivo, Sprague-Dawley rats
polymodal nociceptors [3] = tested on: polymodal nociceptors; parameters: species or system Sprague-Dawley rats; conditions: rat, in vivo
[4] = tested on: polymodal nociceptor neurons; conditions: for RTX-like effects: in vivo
protein kinase C [5] = conditions: read-out: KI, binding affinity to protein kinase C; cited from earlier work
polymodal nociceptors [6] = assay: animal or person; assay type: in vivo, Sprague-Dawley rats; remark: listed apart in the source
protein kinase C [7] = assay type: binding; conditions: for Ki: read-out: KI, binding affinity to protein kinase C
mouse ear = conditions: in vivo; cited from earlier work
[8] = tested on: polymodal nociceptor neurons; conditions: in vivo; cited from earlier work
[9] = mouse, in vivo; cited from earlier work
polymodal nociceptors [10] = conditions: rat, in vivo; cited from earlier work
polymodal nociceptors [11] = tested on: polymodal nociceptors; parameters: species or system Sprague-Dawley rats; conditions: rat, in vivo; remark: listed apart in the source
[12] = rat, in vivo; cited from earlier work
[13] = parameters: species or system rats; conditions: rat, in vivo
[14] = Rattus norvegicus, sc, 6 hr, read-out: Systemic desensitization against neurogenic inflammation, inhibition
[15] = Rattus norvegicus, sc, 6 h, read-out: Systemic desensitization against neurogenic pain, inhibition

| SMILES | Neurogenic inflammation, Evan's blue (polymodal nociceptors [1]) | Evan's blue extravasation (polymodal nociceptors [1]) | inhibition at 0.3 mg/kg (polymodal nociceptors [2]; [14]) | RPP (Relative Pain-Producing Potency) (polymodal nociceptors [3]) | RTX-like effects [4] | inhibition at 0.3 mg/kg (polymodal nociceptors [6]; [15]) | Relative Affinity (protein kinase C [7]) | reduction of protein kinase C binding affinity by the 20-homovanillate ester (protein kinase C [7]) | Ki (protein kinase C [7]) | activity in eye-wiping assay / pain induction (polymodal nociceptors [3]) | other results |
| --- | --- | --- | --- | --- | --- | --- | --- | --- | --- | --- | --- |
| C=C(C)[C@@]12O[C@@]3(c4ccccc4)O[C@@H]1[C@@H]1[C@@H]4O[C@]4(CO)[C@@H](O)[C@]4(O)C(=O)C(C)=C[C@H]4[C@@]1(O3)[C@H](C)[C@H]2OC(=O)/C=C/C=C/c1ccccc1 [Mez, Mezerein] | 0 | slight extravasation | 0% | 0.1 | inactive | – | – | – | – | – | Ki (protein kinase C [5]): 0.58 ± 0.06 nM |
| C=C(C)[C@@]12O[C@@]3(c4ccccc4)O[C@@H]1[C@@H]1[C@@H]4O[C@]4(COC(=O)Cc4ccc(O)c(OC)c4)[C@@H](O)[C@]4(O)C(=O)C(C)=C[C@H]4[C@@]1(O3)[C@H](C)[C@H]2OC(=O)/C=C/C=C/c1ccccc1 [Mez-HV, Mezerein 20-homovanillate] | 0 | No extravasation | 0% | 0.1 | inactive | 0% | 690 | 690 fold | 400 ± 110 nM | very weak pungency; also recorded: very weak activity | less potent than RTX for induction of Evan's blue extravasation (polymodal nociceptors [1]): at least 30 fold; desensitization to chemically-induced pain and to neurogenic inflammation (polymodal nociceptors [6]; rat, in vivo): No activity; also recorded: inactive; potency in eye-wiping assay, less potent than RTX and dPP-HV (polymodal nociceptors [3]): approximately 4 orders of magnitude |
| C=C(C)[C@]12C[C@@H](C)[C@@]34O[C@](Cc5ccccc5)(O[C@@H]1[C@@H]3C=C(CO)C[C@]1(O)C(=O)C(C)=C[C@@H]41)O2 [ROA, Resiniferonol 9,13,14Orthophenylacetate] | 0 | – | 0% | 1 | totally inactive | 0% | – | – | 36 ± 9 nM | – | less active than dPP or mezerein in competing for phorbol ester binding sites on protein kinase C (protein kinase C [7]): 100 fold; potency in ear reddening assay, less than dPP (mouse ear): 25 fold; potency in ear reddening assay, less than mezerein (mouse ear): 33 fold; less potent than RTX for RTX-characteristic biological responses (polymodal nociceptors [3]): at least 1000 fold |
| C=C(C)[C@]12C[C@@H](C)[C@@]34O[C@](Cc5ccccc5)(O[C@@H]1[C@@H]3C=C(COC(=O)Cc1ccc(O)c(OC)c1)C[C@]1(O)C(=O)C(C)=C[C@@H]41)O2 [RTX, Resiniferatoxin] | 91.6 ± 3.6 | – | 100% | 1000 | – | – | 11 | 11 fold | 404 ± 63 nM | comparable activity | inhibition at 0.01 mg/kg (polymodal nociceptors [6]; [15]): 100%; more potent compared to capsaicin [8]: 3-4 orders of magnitude; body temperature in mice [9]: dramatic fall in body temperature; more potent than phorbol 12-myristate 13-acetate in mouse ear erythema assay (mouse ear): 1000 fold; delay of eye-wiping movements after instillation (polymodal nociceptors [3]): 5 to 10 s; dose giving a detectable Evan's blue extravasation response (polymodal nociceptors [10]): 3×10^-6 g/paw; Local desensitization against neurogenic pain, inhibition (polymodal nociceptors [11]): 43%; dose producing a substantial drop in body temperature [12]: 10^-7 g/kg |
| COc1cc(CNC(=O)CCCC/C=C/C(C)C)ccc1O [capsaicin] | – | – | – | – | – | – | – | – | – | – | body temperature in mice [9]: dramatic fall in body temperature |
| CC1=C[C@H]2[C@@]3(O)[C@H](C)C[C@]4(OC(=O)Cc5ccccc5)[C@H]([C@@H]3C=C(CO)C[C@]2(O)C1=O)C4(C)C [dPP, 12-deoxyphorbol 13-phenylacetate] | 0 | slight extravasation | 0% | 1 | inactive | – | – | – | 0.64 ± 0.01 nM | – | – |
| COc1cc(CC(=O)OCC2=C[C@H]3[C@@H]4C(C)(C)[C@]4(OC(=O)Cc4ccccc4)C[C@@H](C)[C@]3(O)[C@@H]3C=C(C)C(=O)[C@@]3(O)C2)ccc1O [dPP-HV, 20-Homovanillic-12-deoxyphorbol 13-phenylacetate] | 0 | No extravasation | 26% | 1000 | more active than capsaicin and less active than RTX | 19% | 130 | 130 fold | 82 ± 13 nM | comparable to RTX; also recorded: comparable activity | less potent than RTX for induction of Evan's blue extravasation (polymodal nociceptors [1]): at least 30 fold; inhibition at 1 mg/kg (polymodal nociceptors [2]; [14]): 62%; relative potency for inhibiting xylene-induced Evan's blue extravasation, less than RTX (polymodal nociceptors [2]; rat, in vivo): 300 fold; desensitization to chemically-induced pain and to neurogenic inflammation (polymodal nociceptors [6]; rat, in vivo): able to desensitize; relative potency for systemic desensitization to chemically induced pain, less than RTX (polymodal nociceptors [6]; rat, in vivo): approximately 3000 fold; delay of eye-wiping movements after instillation (polymodal nociceptors [3]): 20 to 30 s; induction of hypothermia [13]: totally inactive; less potent than RTX for induction of hypothermia [13]: at least 4 orders of magnitude; less potent than RTX in the other RTX responses / in vivo assays [4]: 2-4 orders of magnitude; Local desensitization against neurogenic pain, inhibition (polymodal nociceptors [11]): 78%; potency relative to RTX for desensitization of pain upon local administration (polymodal nociceptors [11]): ≤ 10 fold |
